In brackets after ≈: the same amount, converted by molar mass.
Assays:
[1] = test system: Bacteroides sp.; assay: Antibacterial activity against Bacteroides sp.; format: functional
[2] = Inhibition of Enterobacteriaceae PBP2 by Bocillin FL-based fluorescence assay
[3] = test system: Enterobacteriaceae; assay: Inhibition of MBL in Enterobacteriaceae assessed as potentiation of aztreonam-induced antibacterial activity by measuring aztreonam MIC at 2 ug/ml by agar dilution method (reference value: 4.68 ug/ml)
[4] = test system: Enterobacteriaceae; assay: Inhibition of ESBL in Enterobacteriaceae assessed as potentiation of piperacillin-induced antibacterial activity by measuring piperacillin MIC at 2 ug/ml by agar dilution method
[5] = test system: Enterobacteriaceae; assay: Inhibition of KPC in Enterobacteriaceae assessed as potentiation of meropenem-induced antibacterial activity by measuring meropenem MIC at 2 ug/ml by agar dilution method (reference value: 8.43 ug/ml)
[6] = test system: Enterobacteriaceae; assay: Inhibition of OXA in Enterobacteriaceae assessed as potentiation of cefepime-induced antibacterial activity by measuring cefepime MIC at 2 ug/ml by agar dilution method
[7] = test system: Enterobacteriaceae; assay: Inhibition of KPC in Enterobacteriaceae assessed as potentiation of cefepime-induced antibacterial activity by measuring cefepime MIC at 2 ug/ml by agar dilution method
[8] = test system: Enterobacteriaceae; assay: Inhibition of KPC in Enterobacteriaceae assessed as potentiation of aztreonam-induced antibacterial activity by measuring aztreonam MIC at 2 ug/ml by agar dilution method
[9] = test system: Enterobacteriaceae; assay: Inhibition of ESBL in Enterobacteriaceae assessed as potentiation of aztreonam-induced antibacterial activity by measuring aztreonam MIC at 2 ug/ml by agar dilution method
[10] = test system: Enterobacteriaceae; assay: Inhibition of OXA in Enterobacteriaceae assessed as potentiation of piperacillin-induced antibacterial activity by measuring piperacillin MIC at 2 ug/ml by agar dilution method
[11] = test system: Enterobacteriaceae; assay: Inhibition of KPC in Enterobacteriaceae assessed as potentiation of piperacillin-induced antibacterial activity by measuring piperacillin MIC at 2 ug/ml by agar dilution method
[12] = test system: Enterobacteriaceae; assay: Inhibition of ESBL in Enterobacteriaceae assessed as potentiation of cefepime-induced antibacterial activity by measuring cefepime MIC at 2 ug/ml by agar dilution method
[13] = test system: Enterobacteriaceae; assay: Inhibition of OXA in Enterobacteriaceae assessed as potentiation of aztreonam-induced antibacterial activity by measuring aztreonam MIC at 2 ug/ml by agar dilution method

SMILES	MIC90 [1] [µg/mL]	IC50 [2] [µg/mL]	MIC [3] [µg/mL]	MIC [4] [µg/mL]	MIC [5] [µg/mL]	MIC [6] [µg/mL]	MIC [7] [µg/mL]	MIC [8] [µg/mL]	MIC [9] [µg/mL]	MIC [10] [µg/mL]	MIC [11] [µg/mL]	MIC [12] [µg/mL]	MIC [13] [µg/mL]
C[C@@H](O)[C@H]1C(=O)N2C(C(=O)O)=C(SCCNC=N)C[C@H]12 [IMIPENEM ANHYDROUS]	≤ 1	–	–	–	–	–	–	–	–	–	–	–	–
NCCONC(=O)[C@@H]1CC[C@@H]2CN1C(=O)N2OS(=O)(=O)O [NACUBACTAM]	–	0.12 (≈ 0.37 µM)	0.072	< 1	< 1	< 1	< 1	< 1	< 1	< 1	< 1	< 1	< 1

Source: ChEMBL document CHEMBL4325823 (Medchemcomm, 2018)
